Experimental data as given in US20200230207A1, “TREATMENT OF BONE GROWTH DISORDERS” (FONDAZIONE TELETHON, priority 2015, published 2020).
Square brackets hold non-standard residues; d marks the D form. Ends that are not written are not given here. Peptide text beside a SMILES is read from it. * marks the point of attachment. Cbz = O=C(OCc1ccccc1)*

Columns and labels:
[1] = system: growth plate chondrocytes; test: LC3II in femoral growth plates after leupeptin injection; assay type: in vivo, mouse
Procedure: FIG. 9: a, Comparative TEM images of P0 and P6 wild type growth plate chondrocytes showing increased autophagosomes (AV) biogenesis at P6. Arrows indicate AVs. Bar graphs show number and size of AVs within 5.3 μm field of view (values represent mean±s.e.m. Student's t-test **p<0.005). b, Western blot analysis of LC3I/II of femoral growth plates from mice at indicated ages. Mice were injected with leupeptin (40 mg/kg i.p. 6h before sacrifice) where indicated. β-actin was used as loading control. Bar graphs show quantification of LC3II protein relative to β-actin (mean±s.e.m. *p<0.05 Student's t-test. n=3/group). c, Representative Western blot analysis of Atg7, LC3 and SQSTM1 (p62) proteins in Atg7 f/f, Col2a1-Cre; Atg7 f/f and Prx1-Cre; Atg7 f/f growth plate lysates. […]
FIG. 15: a, Representative images of high content imaging analysis of primary chondrocytes isolated from GFP-LC3 transgenic mice and treated with vehicle or FGF18 (25 ng /ml for 24 h). […] Scale bar 50 μm. b, Quantification of green vesicles (AVs) in cells treated with the indicated factors for 24h. Vesicles were counted in at least 1000 cells/treatment. […] Bar graphs show % of red vesicles (autolysosomes) and of total vesicles relative to vehicle (Values represent mean values±s.d. At least 10 cells/experiment were analyzed from 3 independent experiments. *p<0.05 ***p<0.0005. Student's t-test). […]

[2] = system: FGFR3ach and FGFR3TD chondrocytes; test: LC3II in FGFR3 WT, FGFR3ach and FGFR3TD chondrocytes with lysosomal inhibitors; assay type: cell-based, rat; conditions: leupeptin 50 μM 2 h; bafilomycin 200 nM 4 h
Procedure: Bars graphs represent LC3II quantification relative to β-actin. […] Graphs show representative histograms.
Leupeptin and bafilomycin treatments: Leupeptin (Sigma) was resuspended in water at 10 mM. FGFR3 wild type, FGFR3ach and FGFR3TD stable chondrocytes cell line were treated with 50 μM leupeptin for 2 h at 37° C. Bafilomycin (Millipore) was resuspended in DMSO at 200 μM. FGFR3 wild type, FGFR3 ach and FGFR3TD stable chondrocytes cell line were treated with 200 nM bafilomycin for 4 h at 37° C.

GusbKO chondrocytes = test: Protein degradation and mTORC1 signaling in GusbKO RCS chondrocytes with Mg132; assay type: cell-based, rat
Procedure: FIG. 23: G, WT and GusbKO RCS cells were pulse labelled for 18h with ^3H-Ser and chased for 48h in medium containing vehicle or 100 nM Mg-132. The rate of protein degradation is shown as the fraction of radiolabelled protein remaining over time. Values are expressed as mean (±s.e.m.) of n=3 independent experiments (Student's t-test, * p<0.05, ** p<0.005). H, Luminescent signal resulting from the cleavage of a luminescent Suc-LLVY peptide by the chymotrypsin-like activity of the proteasome was measured in WT and GusbKO RCS cells after 6h treatment with aminoacids. Data are representative of 3 independent experiments and are graphed as relative fluorescence units (RFU) (Student's t-test, * p<0.05). I, Western blot analysis of mTORC1 signaling in WT and GusbKO RCS cells treated with Mg-132 (10 μM) or DMSO (−) for 6h. Arrowheads indicate specific band. J, Bar graphs displaying quantification of relative phosphorylation. Values are expressed as mean (±s.e.m.) of n=3 independent experiments (Student's t-test, * p<0.05, ** p<0.005).

Rx chondrocytes [3] = test: Procollagen (PC2) secretion and trafficking in Rx chondrocytes; assay type: cell-based, rat
Procedure: FIG. 6: a, b, Quantification of secreted PC2 in control and Spautin-1-treated (24 h, 50 μM) (a) and Atg7-knockdown (KD; b) RCS chondrocytes after ER block release of PC2 (min). Ctrl, control. Mean values (±standard deviation (s.d.)) of 3 independent experiments. ANOVA, P=5.29×10^−5 (a), P=0.007 (b); Sidak post-hoc test, […], ***P<0.0005. c, PC2 localization in Golgi area and ER (HSP47) in vehicle and Spautin-1-treated (24 h, 50 μM) RCS chondrocytes 10 min after the ER block release of PC2. Bar graph represents the percentage (±s.d.) of cells containing PC2 in the indicated cellular compartment. N=60; n=3 independent experiments. Student's t-test, **P<0.005. Scale bar, 10 μm. d, Immunofluorescence of PC2, Sec31 and GFP-LC3 in RCS chondrocytes. The insets show higher magnification and single colour channels of the boxed area. N, nucleus. The data are representative of 5 independent experiments. Scale bar, 5 μm. e, Spinning-disk confocal image of RCS chondrocytes co-expressing GFP-LC3- and mCherry-PC2-tagged proteins. Arrows show PC2 molecules sequestered by GFP vesicles. The data are representative of 3 independent experiments. Scale bar, 10 μm. f, Time-lapse stills of PC2 and LC3 from the boxed region in e.
The insets show a high magnification of selected areas. […] The insets show a high magnification of selected areas. Red=collagen; Blue=DAPI. Scale bar 10 μm.
FIG. 14: a a, Immunofluorescence staining of HSP47 chaperone (red) in Atg7^fl/fl and Atg7^fl/fl; Prx1-Cre chondrocytes, showing altered HSP47 distribution in Prx1-Cre; Atg7^fl/fl chondrocytes. The data are representative of 3 independent experiments. Insets show a higher magnification of the boxed area. Scale bar, 10 μm. Blue, DAPI. b, Co-localization of PC2 with HSP47 in growth-plate chondrocytes of mice with indicated genotypes. The data are representative of 3 independent experiments. Scale bar, 20 μm. c, Altered HSP47 and PC2 trafficking in Spautin-1-treated chondrocytes. HSP47 and PC2 immunostaining in control (vehicle) or Spautin-1-treated RCS chondrocytes. Synchronized PC2 secretion was obtained after incubating chondrocytes for 3 h at 40° C. to block PC2 in the ER, and then shifting the temperature to 32° C. (ER block release) for 10 min. The data are representative of 2 independent experiments. Scale bar, 10 μm. d, Proposed model of autophagy function in chondrocytes. Autophagy in chondrocytes prevents PC2 aggregation and maintains ER homeostasis during the process of PC2 secretion. e, Confocal analysis of GFP-LAMP1 (green) and mCherry-PC2 (red) in vehicle- and Spautin-1-treated chondrocytes at the indicated time points (min) after the ER block release. The insets show a high magnification of the selected area. Scale bar, 5 μm. f, Quantification of GFP-LAMP1/mCherry-PC2 co-localization. Values represent mean±s.d. from three independent experiments. N=30. […] The data are representative of 2 independent experiments. Scale bar, 10 μm.
Live cell imaging: Rx chondrocytes were reverse transfected and plated in Mattek glass bottomed dishes. Collagen transport assays were performed by incubating cells at 40° C. on the heated stage for 2.5 h. Collagen release was initiated by lowering the temperature of the stage to 32° C. and medium being supplemented with 50 μg/ml ascorbate.
Procollagen secretion assay: To follow PC2 secretion in Rx chondrocytes, cells were pretreated ON with ascorbate (100 μg/ml) in DMEM without FCS. […]

[4] = system: primary chondrocytes isolated from GFP-LC3 mice; test: High content GFP-LC3 vesicle count in primary chondrocytes; assay type: cell-based, mouse; conditions: in the presence of BafA1, 25 ng/ml for 24 h
Procedure: (§1) FIG. 15: a, Representative images of high content imaging analysis of primary chondrocytes isolated from GFP-LC3 transgenic mice and treated with vehicle or FGF18 (25 ng /ml for 24 h). BafA1 was used where indicated for 4 h (200 nM). Green spots represent GFP labeled AVs. Scale bar 50 μm. b, Quantification of green vesicles (AVs) in cells treated with the indicated factors for 24h. Vesicles were counted in at least 1000 cells/treatment. […] Bar graphs show % of red vesicles (autolysosomes) and of total vesicles relative to vehicle (Values represent mean values±s.d. At least 10 cells/experiment were analyzed from 3 independent experiments. *p<0.05 ***p<0.0005. Student's t-test). […] Quantification of data (mean±s.e.m of n=5 mice/group. *p<0.05, Student's t-test) f, Western blot analysis of Fgf18+/+ and Fgf18+/− growth plate lysates. […]
High content screening analysis in GFP-LC3 primary chondrocytes: Primary chondrocytes were plated in CellCarrier-96 Black plates (6005558, Perkin Elmer). […] To carry out the analysis the number of cytoplasmic GFP-LC3 spots in the cytoplasm of Col2 positive cells were counted, and expressed per cell. Levels of colocalization between GFP-LC3 and Col2a1 were assessed and expressed as %, using the parameters: area of colocalization of red spots with area of green spots normalized to total area of green spots. […]

Rx chondrocytes [5] = test: Tandem mRFP-EGFP-LC3 autophagic flux in Rx chondrocytes; assay type: cell-based, rat; conditions: 25 ng/ml for 24 h
Procedure: as §1, with “cells/treatment. Values represent mean values±s.d. of n=3 independent experiments; Statistical analysis was performed using repeated measure ANOVA with TUKEYs post-hoc test. **p<0.005. c, Western blot analysis of primary chondrocytes isolated from wild type mice treated as indicated (FGF18 25 ng/ml, 24 h). Where indicated BafA1 was added (200 nM, 4h).” for “cells/treatment.”

VPS34-Beclin 1 complex = test: Bcl2 phosphorylation, Beclin 1 co-immunoprecipitation and PI3K assay in Rx chondrocytes; assay type: cell-based, rat; conditions: 25 ng/ml
[6] = system: rat model of osteoarthritis; conditions: intra articular injection; cited from earlier work
MPSVII mice [7] = test: Femur and tibia lengths in MPSVII mice; assay type: in vivo, mouse; conditions: 2 mg/kg i.p. daily, P15 and P30
Procedure: (§2) Control mice were injected with vehicle only. Mice were sacrificed after 15 (P15) and 30 (P30) days.
(§3) Skeletal staining: Skeletons were fixed in 95% ethanol overnight (ON) and stained with alcian blue and alizarin red according to standardized protocols (http://empress.har.mrc.ac.uk/browser/). Three to five mice of each genotype were analyzed per stage. Measurement of bone length was performed using ImageJ software.

MPSVI mice = test: Femur and tibia lengths in MPSVI mice; assay type: in vivo, mouse; conditions: 2 mg/kg i.p. daily for 15 days, P15
Procedure: as §2, §3

MPSVII mice [8] = test: Growth plate histology, BrDU index and collagen in MPSVII mice; assay type: in vivo, mouse; conditions: 2 mg/kg i.p. daily, P15
[9] = synchronized PC2 secretion, 24 h, 50 μM

## CC(=O)N[C@@H](CC(C)C)C(=O)N[C@@H](CC(C)C)C(=O)N[C@H](C=O)CCCNC(=N)N [Leupeptin]
[1]; 40 mg/kg i.p. 6h before sacrifice, P2 and P6
  LC3II levels in the growth plate of wild type mice: further increased the levels of LC3II in the growth plate of P6 but not P2 mice
[1]; 40 mg/kg i.p. 6 h before sacrifice, P6
  LC3II levels in the growth plate of control and Fgf18+/- mice: significantly increased LC3II levels in the growth plate of P6 control but not in Fgfl 8 mice
[2]
  level of LC3II protein compared to FGFR3 wild type stable cells: did not increase

## CC(C)C[C@@H](C=O)NC(=O)[C@H](CC(C)C)NC(=O)[C@H](CC(C)C)NC(=O)OCc1ccccc1 [Mg132] (Cbz-Leu-Leu-Leu-aldehyde)
GusbKO chondrocytes; 100 nM, 48h chase
  increased protein degradation rate of GusbKO chondrocytes: completely blunted
GusbKO chondrocytes; 10 μM, 6h
  mTORC1 signaling: normalized

## Fc1ccc(CNc2ncnc3ccc(F)cc23)cc1 [Spautin-1]
Rx chondrocytes [3]; Spautin-1 24h added to FGF18-stimulated cells
  FGF18-induced increase of PC2 secretion: hampered this increase
Rx chondrocytes [3]; cultured chondrocytes
  ER to cis-Golgi trafficking of HSP47: inhibited
Rx chondrocytes [3]; [9]
  PC2 localization in the ER: retention of PC2 in the ER
  PC2 secretion: defective PC2 secretion

## FGF18: fibroblast growth factor 18 (Peprotech)
Rx chondrocytes [3]; FGF18 25 ng/ml
  efficiency of PC2 secretion compared to non-stimulated cells: higher efficiency
[4]
  AV number (autophagosome biogenesis): increase significantly
Rx chondrocytes [5]
  autophagic flux (autolysosome number): enhanced
VPS34-Beclin 1 complex; 2h
  interaction of Beclin 1-Bcl2: decreased
VPS34-Beclin 1 complex; 2 h, JNK dependent
  VPS34-Beclin 1 complex activity (PI3P levels produced): increases
VPS34-Beclin 1 complex; 2h, JNK-dependent
  phosphorylation of Bcl-2: increases
[6]
  repair of damaged cartilage: can stimulate the repair of damaged cartilage

## RRRQRRKKRGYGGTGFEGDHWIEFTANFVNT ([dR][dR][dR][dQ][dR][dR][dK][dK][dR]G[dY]GG[dT]G[dF][dE]G[dD][dH][dW][dI][dE][dF][dT][dA][dN][dF][dV][dN][dT]; also: retro-inverso)
MPSVII mice [7]
  femoral and tibial growth retardation: rescues
MPSVI mice
  femoral and tibial growth retardation: rescues
MPSVII mice [8]
  collagen levels in femoral and tibia cartilages: normalizes
  growth plate differentiation and proliferation defects: normalizes

## bafilomycin
[2]
  level of LC3II protein compared to FGFR3 wild type stable cells: did not increase
